Reference: paper PMC11555526, “Development of 2-Aminoadenine-Based Proteolysis-Targeting Chimeras (PROTACs) as Novel Potent Degraders of Monopolar Spindle 1 and Aurora Kinases” (ACS Pharmacology & Translational Science, 2024)

Tests used:
Format in all cases: cell-based
AURKB = target: T1, AURKB (Homo sapiens, UniProt Q96GD4); experiment: Immunoblot of AURKB in naive MV4-11 cells; details: 6 h, 10 µM
T1 construct: endogenous in cells; host or cells: naive MV4-11
Experimental: (§1) The cells were treated with compounds or vehicle for indicated time points and lysed in RIPA lysis buffer (50 mM HEPES pH 7.9, 140 mM NaCl, 1 mM EDTA, 1% Triton X-100, 0.1% SDS, 0.1% sodium deoxycholate) containing protease and phosphatase inhibitors (Sigma) for 20 min at 4 °C. Cell lysates were cleared by centrifugation, and protein concentration was determined with bicinchoninic acid assay. Equal amounts of protein per sample were separated by Bis-Tris-PAGE and transferred to PVDF membranes (Millipore). The membranes were blocked with 5% (w/v) nonfat dry milk in TBS-T [20 mM Tris–HCl, pH 7.5, 150 mM NaCl, 0.1% (v/v) Tween-20] for 1 h at room temperature and incubated with primary antibody at 4 °C overnight. Visualization was carried out using horseradish peroxidase (HRP)-labeled secondary antibodies and detected using a chemiluminescent HRP substrate (Millipore) in LAS3000 or LAS4000 mini (Fujifilm). Vinculin, GAPDH, or B-actin were used as a loading control. The loading control was probed along with the target antibody by cutting the membrane. For targets with similar molecular weights, the samples were run in duplicate and probed with their respective loading controls, although only one control was shown in the figure for all targets. The signal was quantified using ImageJ or Image Studio Lite against the corresponding loading controls. Antibodies used in this study were as follows: Aurora A/AIK (Cell Signaling Technology, 3092), Aurora B (Bethyl Laboratories, A300–431A), TTK (Santa Cruz Biotechnology, sc-56968), GAPDH (Cell Signaling Technology, 2118), B-Actin (Sigma, A5441), and Vinculin (Sigma, V9131).
(§2) α GAPDH α Vinculin α B-Actin
(§3) Figure S2: Cellular degradation studies of SF1-based compounds. […]
(§4) Immunoblots of TTK and AURKB. Naive MV4-11 cells were treated with indicated concentration of 44 or 47 G)
(§5) (E), 18 (F), and 14 or 20 (G) for 6 h and compared with vehicle treated cells. […]
(§6) All HiBiT data are represented as a mean ±s.d. from n=2 replicates. […]

TTK [1] = target: T2, TTK (Homo sapiens, UniProt P33981); experiment: Immunoblot of TTK in naive MV4-11 cells; design: endogenous in cells; host or cells: naive MV4-11; details: 6 h
T2 sequence (P33981 1-857): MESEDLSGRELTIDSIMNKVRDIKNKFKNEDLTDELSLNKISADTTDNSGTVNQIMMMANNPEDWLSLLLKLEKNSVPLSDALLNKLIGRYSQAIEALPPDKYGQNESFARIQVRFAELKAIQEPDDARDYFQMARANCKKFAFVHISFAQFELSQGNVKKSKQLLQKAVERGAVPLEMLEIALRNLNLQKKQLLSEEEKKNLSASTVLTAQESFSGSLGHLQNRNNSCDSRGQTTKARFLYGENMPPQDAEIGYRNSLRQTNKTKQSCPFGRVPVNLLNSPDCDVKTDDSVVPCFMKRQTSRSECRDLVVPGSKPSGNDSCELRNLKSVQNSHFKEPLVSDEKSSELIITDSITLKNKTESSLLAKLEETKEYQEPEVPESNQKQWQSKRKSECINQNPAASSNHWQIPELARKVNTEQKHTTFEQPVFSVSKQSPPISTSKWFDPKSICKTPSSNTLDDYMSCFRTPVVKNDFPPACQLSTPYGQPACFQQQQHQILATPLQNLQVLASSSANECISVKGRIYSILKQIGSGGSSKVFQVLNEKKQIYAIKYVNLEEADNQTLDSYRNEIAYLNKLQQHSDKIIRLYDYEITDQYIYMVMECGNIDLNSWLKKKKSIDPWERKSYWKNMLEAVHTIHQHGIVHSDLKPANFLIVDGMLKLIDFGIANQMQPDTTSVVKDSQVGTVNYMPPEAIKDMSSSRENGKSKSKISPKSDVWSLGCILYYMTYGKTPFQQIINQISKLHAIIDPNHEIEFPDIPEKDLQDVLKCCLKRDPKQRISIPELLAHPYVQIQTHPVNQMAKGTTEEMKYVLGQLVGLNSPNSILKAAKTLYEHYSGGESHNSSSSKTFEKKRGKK
Experimental: as §1, §2, §3
GAPDH was used as a loading control. (E-
as §4, §5, §6

TTK [2] = target: T2, TTK; experiment: Immunoblot of TTK in HiBiT-TTK cells; design: endogenous in cells; host or cells: naive MV4-11; details: 6 h, 10 µM
Experimental: as §1, with “Antibodies used in this study were as follows: Aurora A/AIK (Cell Signaling Technology, 3092), Aurora B (Bethyl Laboratories, A300–431A), TTK (Santa Cruz Biotechnology, sc-56968), GAPDH (Cell Signaling Technology, 2118), B-Actin (Sigma, A5441), and Vinculin (Sigma, V9131).” left out

T1 sequence (Q96GD4 whole entry): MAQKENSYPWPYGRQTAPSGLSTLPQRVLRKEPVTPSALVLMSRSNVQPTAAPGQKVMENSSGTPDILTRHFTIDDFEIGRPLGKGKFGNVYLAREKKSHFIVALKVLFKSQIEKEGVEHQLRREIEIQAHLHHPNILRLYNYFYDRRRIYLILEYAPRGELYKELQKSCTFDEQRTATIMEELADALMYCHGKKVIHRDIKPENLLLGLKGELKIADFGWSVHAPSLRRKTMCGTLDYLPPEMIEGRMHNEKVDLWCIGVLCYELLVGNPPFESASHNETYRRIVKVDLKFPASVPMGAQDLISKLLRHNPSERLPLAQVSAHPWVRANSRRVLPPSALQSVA

| relative AURKB level (immunoblot quantification, vehicle = 1.00) (AURKB) | relative TTK level (immunoblot quantification, vehicle = 1.00) (TTK [1]; 0.01 µM) | relative TTK level (immunoblot quantification, vehicle = 1.00) (TTK [1]; 1 µM) | relative TTK level (immunoblot quantification, vehicle = 1.00) (TTK [1]; 10 µM) | relative TTK level (immunoblot quantification, vehicle = 1.00) (TTK [2]) | SMILES |
| --- | --- | --- | --- | --- | --- |
| 0.79 | 1.00 | 1.00 | 0.67 |  | Cc1ncsc1-c1ccc(CNC(=O)[C@@H]2C[C@@H](O)CN2C(=O)[C@@H](NC(=O)CCCC(=O)N2CCN(c3ccc(Nc4nc(Nc5ccccc5S(=O)(=O)C(C)C)c5nc[nH]c5n4)cc3)CC2)C(C)(C)C)cc1 [Compound 44] |
| 0.87 |  |  | 1.16 |  | CC(C)S(=O)(=O)c1ccccc1Nc1nc(Nc2ccc(N3CCN(C(=O)CCCC(=O)Nc4cccc5c4C(=O)N(C4CCC(=O)NC4=O)C5=O)CC3)cc2)nc2[nH]cnc12 (stereo not shown) [Compound 14] |
|  |  |  |  | 0.48 | Cc1ncsc1-c1ccc(CNC(=O)[C@@H]2C[C@@H](O)CN2C(=O)[C@@H](NC(=O)COCCOCC(=O)N2CCN(c3ccc(Nc4nc(Nc5ccccc5S(=O)(=O)C(C)C)c5nc[nH]c5n4)cc3)CC2)C(C)(C)C)cc1 [Compound 49] |
